Data on 23 compounds can be found in ChEMBL document CHEMBL2010736 (ACS Med Chem Lett, 2011).

Active and inactive are the calls of the source. No cut-off for these calls is given here.

Broadly, the inhibition is the percentage by which the read-out fell short of the control. What is called Ki is a dissociation constant, usually derived from enzyme kinetics or from competition with a known ligand. In general, EC50 refers to the concentration that produces a half-maximal response.

Experiment [1] addresses T1, Adenosine receptor A2a (Homo sapiens, UniProt P29274). Description: Displacement of [3H]CGS21680 from human recombinant adenosine receptor-2A expressed in HEK293 cell membrane at 10 uM after 60 mins by liquid scintillation counting. Type of experiment: cell membranes.
Experiment [2] addresses T2, Adenosine receptor A1 (Homo sapiens) (UniProt P30542).
T2 sequence (whole entry): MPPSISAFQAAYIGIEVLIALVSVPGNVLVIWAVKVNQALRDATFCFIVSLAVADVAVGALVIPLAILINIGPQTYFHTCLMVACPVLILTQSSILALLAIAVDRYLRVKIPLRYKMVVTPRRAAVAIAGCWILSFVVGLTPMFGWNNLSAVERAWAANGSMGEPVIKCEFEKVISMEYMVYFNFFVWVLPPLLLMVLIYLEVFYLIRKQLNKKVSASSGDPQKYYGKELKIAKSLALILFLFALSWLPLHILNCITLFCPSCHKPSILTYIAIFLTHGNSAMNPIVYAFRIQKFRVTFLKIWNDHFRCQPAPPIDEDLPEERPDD
Description: Agonist activity at human recombinant adenosine receptor-1 expressed in CHO cells assessed as inhibition of forskolin-stimulated cAMP production at 10 uM preincubated for 45 mins prior forskolin-induction measured after 15 mins by immunoassay relative to 10 uM CPA. It counts as functional, cell-based. On the technique in general: Cyclic AMP is a second messenger, typically raised through Gs and lowered through Gi signalling.

The species named for experiment [3] is Homo sapiens. Description: Selectivity ratio of Ki for human recombinant adenosine receptor-3 to Ki for human recombinant adenosine receptor-1.
Experiment [4] has as its target T1, Adenosine receptor A2a. The experiment is described as follows: Displacement of [3H]CGS21680 from human recombinant adenosine receptor-2A expressed in HEK293 cell membrane after 60 mins by liquid scintillation counting. Type of experiment: cell membranes. (In general: Displacement assays read how much labelled ligand stays bound in the presence of the test substance.)

Experiment [5] deals with T3, Adenosine receptor A1 (Rattus norvegicus, UniProt P25099).
T3 sequence (P25099 whole entry): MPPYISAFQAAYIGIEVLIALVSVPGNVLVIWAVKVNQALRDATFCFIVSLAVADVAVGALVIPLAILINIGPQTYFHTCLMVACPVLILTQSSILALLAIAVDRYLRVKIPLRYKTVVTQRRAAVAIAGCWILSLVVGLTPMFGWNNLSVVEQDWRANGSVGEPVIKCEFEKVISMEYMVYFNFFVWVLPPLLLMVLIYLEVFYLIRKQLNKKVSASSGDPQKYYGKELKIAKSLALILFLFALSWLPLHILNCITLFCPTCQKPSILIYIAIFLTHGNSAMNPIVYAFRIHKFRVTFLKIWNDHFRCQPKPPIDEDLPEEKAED
Description: Displacement of [3H]R-PIA from rat forebrain adenosine receptor-1.

Experiment [6] concerns the target T4, Adenosine receptor A3 (Homo sapiens, UniProt P0DMS8).
T4 sequence (P0DMS8 whole entry): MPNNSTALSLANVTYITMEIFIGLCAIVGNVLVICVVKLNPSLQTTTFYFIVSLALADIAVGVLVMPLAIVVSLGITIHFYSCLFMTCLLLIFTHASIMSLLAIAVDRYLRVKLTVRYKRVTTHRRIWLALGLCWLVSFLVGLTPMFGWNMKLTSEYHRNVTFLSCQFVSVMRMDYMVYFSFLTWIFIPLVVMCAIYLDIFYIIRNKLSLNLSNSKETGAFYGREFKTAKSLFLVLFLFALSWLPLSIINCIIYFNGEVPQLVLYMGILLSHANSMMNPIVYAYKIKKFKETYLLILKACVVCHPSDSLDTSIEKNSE
Description: Displacement of [125I]AB-MECA from human recombinant adenosine receptor-3 expressed in CHO cell membrane after 60 mins by gamma-counting. Type of experiment: cell membranes.

For experiment [7], the target named is T5, Adenosine receptor A1 (Homo sapiens, UniProt P30542).
T5 sequence (P30542 whole entry): T2 sequence (whole entry)
Description: Displacement of [3H]R-PIA from human recombinant adenosine receptor-1 expressed in CHO cell membrane after 60 mins by liquid scintillation counting. Type of experiment: cell membranes.

Experiment [8] addresses T2, Adenosine receptor A1 (Homo sapiens). Description: Displacement of [3H]R-PIA from human recombinant adenosine receptor-1 expressed in CHO cell membrane at 10 uM after 60 mins by liquid scintillation counting. Type of experiment: cell membranes.
Experiment [9] deals with T5, Adenosine receptor A1. The experiment is described as follows: Agonist activity at human recombinant adenosine receptor-1 expressed in CHO cells assessed as inhibition of forskolin-stimulated cAMP production preincubated for 45 mins prior forskolin-induction measured after 15 mins by immunoassay. It counts as functional, cell-based.
Experiment [10] concerns the target T6, Adenosine receptor A3 (Rattus norvegicus) (UniProt P28647).
T6 sequence (whole entry): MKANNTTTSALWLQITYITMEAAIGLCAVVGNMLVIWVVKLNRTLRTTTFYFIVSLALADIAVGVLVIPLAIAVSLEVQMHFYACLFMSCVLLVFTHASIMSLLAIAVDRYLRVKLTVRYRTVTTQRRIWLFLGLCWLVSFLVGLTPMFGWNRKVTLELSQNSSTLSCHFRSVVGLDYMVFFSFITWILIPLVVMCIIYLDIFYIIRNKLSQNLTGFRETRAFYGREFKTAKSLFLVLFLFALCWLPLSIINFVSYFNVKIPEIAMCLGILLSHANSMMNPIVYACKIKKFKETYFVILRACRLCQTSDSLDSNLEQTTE
The experiment is described as follows: Partial agonist activity at rat adenosine receptor-3. Type of experiment: functional.

Experiment [11] addresses T7, Adenosine receptor A1 (Rattus norvegicus) (UniProt P25099).
T7 sequence (whole entry): T3 sequence (P25099 whole entry)
The experiment is described as follows: Antagonist activity at adenosine receptor-1 in rat adipocytes. It counts as functional, cell-based.

Experiment [12] is filed under the species Homo sapiens. Description: Selectivity ratio of Ki for human recombinant adenosine receptor-1 to Ki for human recombinant adenosine receptor-3.

T1 sequence (P29274 whole entry): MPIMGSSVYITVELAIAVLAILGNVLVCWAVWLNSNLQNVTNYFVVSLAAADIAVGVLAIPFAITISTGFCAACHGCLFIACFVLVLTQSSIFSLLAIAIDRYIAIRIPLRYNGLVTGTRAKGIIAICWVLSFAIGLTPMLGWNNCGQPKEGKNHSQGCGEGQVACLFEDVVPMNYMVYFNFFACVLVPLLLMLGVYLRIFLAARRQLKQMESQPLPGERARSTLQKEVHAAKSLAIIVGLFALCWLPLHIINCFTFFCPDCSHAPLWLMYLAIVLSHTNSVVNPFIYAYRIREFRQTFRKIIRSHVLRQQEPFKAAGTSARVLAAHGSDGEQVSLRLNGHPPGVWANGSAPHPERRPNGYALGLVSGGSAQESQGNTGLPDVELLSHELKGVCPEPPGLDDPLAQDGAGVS

For the compound `CCNc1nc(Cl)nc2c1ncn2[C@H]1[C@H](O)[C@H](O)[C@@H]2C[C@@H]21`, the inhibition in [1] was found to be 11%.
`O[C@@H]1[C@H](O)[C@@H]2C[C@@H]2[C@H]1n1cnc2c(NC3CCCCCCC3)nc(Cl)nc21`: the values for the inhibition in experiment [2] and in [1] were 40.1% and 43%, respectively. Moreover, in experiment [3], the Ratio Ki came out at 2.
For `O[C@@H]1[C@H](O)[C@@H]2C[C@@H]2[C@H]1n1cnc2c(N[C@@H]3C[C@H]4CC[C@H]3C4)nc(Cl)nc21`, the inhibition in experiment [2] was found to be 27.8%. Moreover, the Ki in [4] was 4.08 µM; in experiment [5] it was 0.0007 µM; in [6], 0.236 µM; in experiment [7], 0.2 µM.
For `O[C@@H]1[C@H](O)[C@@H]2C[C@@H]2[C@H]1n1cnc2c(NCc3cc(F)ccc3F)nc(Cl)nc21`, the inhibition in experiment [1] came to 38%. Besides, the Ki came to 0.0165 µM in [6] and 1.26 µM in [7].
Compound `O[C@@H]1[C@H](O)[C@@H]2C[C@@H]2[C@H]1n1cnc2c(NC3CCC3)nc(Cl)nc21` showed a Ki in [5] of 0.0007 µM.
With `COc1ccc(F)c(F)c1CNc1nc(Cl)nc2c1ncn2[C@H]1[C@H](O)[C@H](O)[C@@H]2C[C@@H]21`, the figures for the inhibition in experiment [1] and in experiment [8] were 30% and 41%, respectively. For the same compound, in experiment [6], the Ki came to 0.0832 µM.
With `O[C@@H]1[C@H](O)[C@@H]2C[C@@H]2[C@H]1n1cnc2c(NC3CC3)nc(Cl)nc21`, the inhibition in [2] came to 79%.
For the compound `O[C@@H]1[C@H](O)[C@@H]2C[C@@H]2[C@H]1n1cnc2c(NCCCF)nc(Cl)nc21`, the inhibition stood at 23.2% in [2] and 29% in experiment [1].
`O[C@@H]1[C@H](O)[C@@H]2C[C@@H]2[C@H]1n1cnc2c(NC3CCCCCC3)nc(Cl)nc21`: in experiment [2], the inhibition worked out at 48.1%.
In the case of `O[C@@H]1[C@H](O)[C@@H]2C[C@@H]2[C@H]1n1cnc2c(NC3CCCCC3)nc(Cl)nc21`, in experiment [2], the inhibition was found to be 38%. Further, the Ratio Ki in experiment [3] turned out to be 2. Besides, the Ki in [5] was determined as 0.0009 µM.
Regarding `CCOc1ccccc1CNc1nc(Cl)nc2c1ncn2[C@H]1[C@H](O)[C@H](O)[C@@H]2C[C@@H]21`, the results for the inhibition in experiment [1] and in experiment [8] were 32% and 34%, respectively. In addition, in [6], the Ki worked out at 0.0152 µM.
Regarding `O[C@@H]1[C@H](O)[C@@H]2C[C@@H]2[C@H]1n1cnc2c(NCc3cccc(OCCF)c3)nc(Cl)nc21`, in experiment [1], the inhibition was 46%. The Ki in experiment [6] turned out to be 0.114 µM; in experiment [7] it was 3.58 µM.
Turning to `O[C@@H]1[C@H](O)[C@@H]2C[C@@H]2[C@H]1n1cnc2c(N[C@H]3C[C@H]4CC[C@H]3C4)nc(Cl)nc21`, the inhibition in [2] is 62.1%. Also, in experiment [3], the Ratio Ki was 4. Besides, the Ki is 2.45 µM in experiment [4], 0.00034 µM in [5], 0.315 µM in experiment [6] and 0.0826 µM in experiment [7].
For `O[C@@H]1[C@H](O)[C@@H]2C[C@@H]2[C@H]1n1cnc2c(NCc3ccccc3OCCF)nc(Cl)nc21`, the inhibition in experiment [1] stood at 32%; in [8], 46%.
`CC(C)Nc1nc(Cl)nc2c1ncn2[C@H]1[C@H](O)[C@H](O)[C@@H]2C[C@@H]21`: the inhibition in [2] is 50.5%; in experiment [1], 39%. The compound also gave a Ki in experiment [5] of 0.0019 µM.
Regarding `O[C@@H]1[C@H](O)[C@@H]2C[C@@H]2[C@H]1n1cnc2c(NC(C3CC3)C3CC3)nc(Cl)nc21`, the Ki in experiment [5] came out at 0.0008 µM. In addition, in [9], the EC50 was 0.0407 µM.
As for `COc1cc(F)c(F)cc1CNc1nc(Cl)nc2c1ncn2[C@H]1[C@H](O)[C@H](O)[C@@H]2C[C@@H]21`, the Ki in experiment [4] is 7.51 µM; in [6] it was 0.0404 µM; in experiment [7], 1.91 µM.
As to `CCC(CC)Nc1nc(Cl)nc2c1ncn2[C@H]1[C@H](O)[C@H](O)[C@@H]2C[C@@H]21`, the inhibition in [2] turned out to be 28.6%.
Still for that read-out and setting: to `Nc1nc(Cl)nc2c1ncn2[C@H]1[C@H](O)[C@H](O)[C@@H]2C[C@@H]21` belongs 68.1%.
For `CC(Nc1nc(Cl)nc2c1ncn2[C@H]1[C@H](O)[C@H](O)[C@@H]2C[C@@H]21)C1CC1` (mixture of isomers), the inhibition in [1] was determined as 41%.
As for `CCCCn1c(=O)c2c(ncn2[C@@H]2O[C@H](C(=O)NC)C[C@H]2O)n(CCCC)c1=O`, the outcome in experiment [10] and in experiment [11] was Active.
On to `O[C@@H]1[C@H](O)[C@@H]2C[C@@H]2[C@H]1n1cnc2c(NCC3CC3)nc(Cl)nc21`, for which the inhibition in experiment [2] worked out at 81%. The compound also came in with a Ki in experiment [5] of 0.0008 µM.
For the compound `O[C@@H]1[C@H](O)[C@@H]2C[C@@H]2[C@H]1n1cnc2c(NCc3ccccc3F)nc(Cl)nc21`, the inhibition in experiment [1] worked out at 31%. Besides, in experiment [5], the Ki was 0.006 µM. In addition, the Ratio Ki in experiment [12] is 115.
